Source: US20250092001A1, “NOVEL EXCITATORY AMINO ACID GLUTAMATE TRANSPORT MODULATORS AND METHODS USING THE SAME” (Drexel University, priority 2022, published 2025)

Legend:
[1] = system: Drosophila model of Huntington's Disease (Htt model); assay: Larval locomotion assay in Drosophila Huntington's disease model; assay type: in vivo; details: third instar larvae; concentrations as low as two-fold below EC50 and one-fold below EC50
From the text: FIG. 6A illustrate certain aspects of a locomotion assay used to assay the locomotive activities. […] FIGS. 6B and 6C depict the results of the locomotion assay results of wild-type Drosophila (“WT”), as well as Drosophila of a Huntington's disease model treated with vehicle (“Veh”) or with various concentrations of two exemplary GLT-1 modulators. […] The Drosophila Htt model is produced by crossing UAS-Htt([…]) male flies with elav-Gal4 virgin female flies. Both fly strains were purchased from Bloomington Drosophila Stock Center (BDSC, Indiana, USA). […] Locomotion assays were conducted by transferring the third instar larvae of flies to agar plates (FIG. 6A) and counting the number of grid lines crossed in 30 seconds.

[2] = system: R6/2 mice (Huntington disease model); assay: Open field locomotion test; assay type: in vivo, mouse; details: GTS467 2, 4, and 10 mg/kg
Procedure: FIG. 9A depicts the results of a locomotion test. In the locomotion test of FIG. 9A, wildtype and R6/2 mice treated with vehicle or different doses of GTS467 (2, 4, and 10 mg/kg) or ceftriaxone (200 mg/kg) were subjected to the open field test to evaluate their locomotor abilities in a 44×44 cm and 43×43 cm square open field arena. Animals were placed individually in the open field arena and behavior was recorded for a period of 5 minutes under dim light and low noise conditions. Animal behavior was recorded using an overhead camera and the distance moved was recorded and quantified using the Noldus ethovision XT-14 software. FIG. 9B depicts the results of a memory task test. Referring to FIG. 9B, to test for memory impairment a novel object recognition assay was performed. A 44×44 cm square shaped open field arena was used to perform this test at week 12 and week 15. The behavioral evaluation was performed in 2 sets, each set having equal number of animals. […] The behavior was recorded under dim light and low noise conditions using an overhead camera. Cumulative duration with both the objects, total object exploration (sec), distance travelled (cm) was quantified using the Noldus ethovision XT 14 software. […]

[3] = system: Drosophila model of Huntington's disease; assay: Larval olfactory associative learning test; assay type: in vivo; details: Elav x Htt larvae; 3.53 nM GT467, […] GT511
Procedure: FIG. 7A illustrates certain aspects of a larval olfactory associative learning used to test learning and memory. In FIG. 7A, larvae were trained with either a reinforcer solution containing sucrose (“LIN/SUC”) or a control of distilled water (“LIN/DW”). The trained larvae were then transferred to a dish having test odorant placed on one side and a control on the opposite side. […] The ΔRI (difference between LIN/SUC and LIN/DW performance scores) were then calculated for the high performers (FIG. 7B), low performers (FIG. 7C) and non-performers (FIG. 7D). […] Referring to FIG. 7A, Drosophila larvae were trained with either a reinforcer solution containing sucrose (“LIN/SUC”) or a control of distilled water (“LIN/DW”). The trained larvae were then transferred to a dish having test odorant placed on one side and a control on the opposite side. The ΔRI were then calculated for the high performers (FIG. 7B), low performers (FIG. 7C) and non-performers (FIG. 7D).

[4] = system: NR2A, NR2B, NR1; assay: Western blot of cortex and striatum of treated PD rats: NMDA receptor subunits; assay type: in vivo, rat
Procedure: Cortex and striatum were separately collected, and homogenates were prepared. Homogenates were centrifuged to obtain the protein extract in membrane and cytoplasmic fraction. Protein was estimated for each individual samples. Protein lysates were mixed with 6× loading buffer (5:1 ratio) and were heated (95° C. for 5 min). 20 μg protein was loaded to Tris-Glycine Mini gel for separation at […] for 2 h. Separated proteins were transferred to a PVDF membrane. 3% BSA was used for blocking the nontarget proteins to avoid noise. Membrane was incubated with primary Ab overnight at 4° C. followed by secondary Ab incubation for 3 h at room temperature. The protein bands were detected using ECL methods. The bands were quantified using Image J software.

COc1ccc(NC(=O)C(=O)NCC(c2ccccc2)N2CCN(C)CC2)cc1 (centres unmarked) [GT467, N1-(4-methoxyphenyl)-N2-(2-(4-methylpiperazin-1-yl)-2-phenylethyl)oxalamide]
Locomotor ability (grid lines crossed in 30 seconds) [1]: restores the Huntington's disease model flies' locomotor ability | Distance moved [2]: significantly increased | Olfactory learning performance (ΔRI) [3]: improved significantly | NR1 expression ([4]; cortex (CRTX)): reduced in CRTX | NR2A, 2B and NR1 expressions ([4]; synaptic level): elevation of NR2A, 2B and NR1 expressions
